Reference: PubChem BioAssay (NCI)
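Values below derive from 48-hour exposures of cells grown in 96-well plates, with endpoints linearly interpolated between the two concentrations bracketing the appropriate inhibition level. GI50: concentration for 50% inhibition of growth. TGI: concentration producing complete growth inhibition.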

Assays:
Assay in all cases: inhibition of tumour cell growth, NCI panel, 48 h
786-0 renal = tested on: 786-0 renal
A498 renal = tested on: A498 renal
A549 NSCLC = tested on: A549 NSCLC
ACHN renal = tested on: ACHN renal
BT-549 breast = tested on: BT-549 breast
CAKI-1 renal = tested on: CAKI-1 renal
CCRF-CEM leukemia = tested on: CCRF-CEM leukemia
COLO 205 colon = tested on: COLO 205 colon
DU-145 prostate = tested on: DU-145 prostate
EKVX NSCLC = tested on: EKVX NSCLC
HCC-2998 colon = tested on: HCC-2998 colon
HCT-116 colon = tested on: HCT-116 colon
HCT-15 colon = tested on: HCT-15 colon
HOP-62 NSCLC = tested on: HOP-62 NSCLC
HOP-92 NSCLC = tested on: HOP-92 NSCLC
HS 578T breast = tested on: HS 578T breast
HT29 colon = tested on: HT29 colon
IGROV1 ovarian = tested on: IGROV1 ovarian
K-562 leukemia = tested on: K-562 leukemia
KM12 colon = tested on: KM12 colon
LOX IMVI melanoma = tested on: LOX IMVI melanoma
M14 melanoma = tested on: M14 melanoma
MALME-3M melanoma = tested on: MALME-3M melanoma
MCF7 breast = tested on: MCF7 breast
MDA-MB-231 breast = tested on: MDA-MB-231 breast
MDA-MB-435 = tested on: MDA-MB-435
MOLT-4 leukemia = tested on: MOLT-4 leukemia
NCI-H226 lung = tested on: NCI-H226 lung
NCI-H23 lung = tested on: NCI-H23 lung
NCI-H460 lung = tested on: NCI-H460 lung
NCI-H522 lung = tested on: NCI-H522 lung
NCI/ADR-RES ovarian = tested on: NCI/ADR-RES ovarian
OVCAR-3 ovarian = tested on: OVCAR-3 ovarian
OVCAR-4 ovarian = tested on: OVCAR-4 ovarian
OVCAR-5 ovarian = tested on: OVCAR-5 ovarian
OVCAR-8 ovarian = tested on: OVCAR-8 ovarian
PC-3 prostate = tested on: PC-3 prostate
RPMI-8226 leukemia = tested on: RPMI-8226 leukemia
RXF 393 renal = tested on: RXF 393 renal
SF-268 CNS = tested on: SF-268 CNS
SF-295 CNS = tested on: SF-295 CNS
SF-539 CNS = tested on: SF-539 CNS
SK-MEL-2 melanoma = tested on: SK-MEL-2 melanoma
SK-MEL-28 melanoma = tested on: SK-MEL-28 melanoma
SK-MEL-5 melanoma = tested on: SK-MEL-5 melanoma
SK-OV-3 ovarian = tested on: SK-OV-3 ovarian
SN12C renal = tested on: SN12C renal
SNB-19 CNS = tested on: SNB-19 CNS
SNB-75 CNS = tested on: SNB-75 CNS
SW-620 colon = tested on: SW-620 colon
T-47D breast = tested on: T-47D breast
TK-10 renal = tested on: TK-10 renal
U251 CNS = tested on: U251 CNS
UACC-257 melanoma = tested on: UACC-257 melanoma
UACC-62 melanoma = tested on: UACC-62 melanoma
UO-31 renal = tested on: UO-31 renal

Molecule `COc1ccc2c(c1)c(=O)oc1cc(OC/C(=N\O)c3ccc(F)cc3)ccc12` has a GI50 (786-0 renal) of 13.6 µM, a TGI (786-0 renal) of 33.7 µM and a GI50 (A498 renal) of 16.7 µM. The TGI (A498 renal) was 35.3 µM, the GI50 (A549 NSCLC) was 27.8 µM and the TGI (A549 NSCLC) was > 100 µM. It also gave a GI50 (ACHN renal) of 21 µM, a TGI (ACHN renal) of 55.4 µM and a GI50 (BT-549 breast) of 18.8 µM. It also gave a TGI (BT-549 breast) of 44.2 µM, a GI50 (CAKI-1 renal) of 19.9 µM and a TGI (CAKI-1 renal) of 47.8 µM. The GI50 (CCRF-CEM leukemia) was 7.07 µM, the TGI (CCRF-CEM leukemia) was > 100 µM and the GI50 (COLO 205 colon) was 15.6 µM. The TGI (COLO 205 colon) was 34.6 µM, the GI50 (DU-145 prostate) was 33.3 µM and the TGI (DU-145 prostate) was > 100 µM. For the same molecule, the GI50 (EKVX NSCLC) was 30.2 µM, the TGI (EKVX NSCLC) was > 100 µM and the GI50 (HCC-2998 colon) was 16.4 µM. For the same molecule, the TGI (HCC-2998 colon) was 33.5 µM, the GI50 (HCT-116 colon) was 14.2 µM and the TGI (HCT-116 colon) was 28 µM. The GI50 (HCT-15 colon) was 20.5 µM, the TGI (HCT-15 colon) was 61.2 µM and the GI50 (HOP-62 NSCLC) was 18.9 µM. It also gave a TGI (HOP-62 NSCLC) of 41.8 µM, a GI50 (HOP-92 NSCLC) of 24.9 µM and a TGI (HOP-92 NSCLC) of 72.2 µM. It also gave a GI50 (HS 578T breast) of 27 µM, a TGI (HS 578T breast) of 75.6 µM and a GI50 (HT29 colon) of 15.5 µM. The TGI (HT29 colon) was 36.6 µM, the GI50 (IGROV1 ovarian) was 20.5 µM and the TGI (IGROV1 ovarian) was 50.5 µM. The GI50 (K-562 leukemia) was 25.6 µM, the TGI (K-562 leukemia) was > 100 µM and the GI50 (KM12 colon) was 19.7 µM. For the same molecule, the TGI (KM12 colon) was 43.8 µM, the GI50 (LOX IMVI melanoma) was 17.8 µM and the TGI (LOX IMVI melanoma) was 33 µM. For the same molecule, the GI50 (M14 melanoma) was 15.7 µM, the TGI (M14 melanoma) was 30.7 µM and the GI50 (MALME-3M melanoma) was 16.3 µM. The TGI (MALME-3M melanoma) was 44.2 µM, the GI50 (MCF7 breast) was 19.8 µM and the TGI (MCF7 breast) was 66 µM. For the same molecule, the GI50 (MDA-MB-231 breast) was 18 µM, the TGI (MDA-MB-231 breast) was 43.4 µM and the GI50 (MDA-MB-435) was 12.6 µM. For the same molecule, the TGI (MDA-MB-435) was 36.2 µM, the GI50 (MOLT-4 leukemia) was 18.1 µM and the TGI (MOLT-4 leukemia) was > 100 µM. The GI50 (NCI-H226 lung) was 37 µM, the TGI (NCI-H226 lung) was > 100 µM and the GI50 (NCI-H23 lung) was 20.4 µM. For the same molecule, the TGI (NCI-H23 lung) was 54.3 µM, the GI50 (NCI-H460 lung) was 18.6 µM and the TGI (NCI-H460 lung) was 53.3 µM. It also gave a GI50 (NCI-H522 lung) of 14.9 µM, a TGI (NCI-H522 lung) of 37.8 µM and a GI50 (NCI/ADR-RES ovarian) of 18.2 µM. For the same molecule, the TGI (NCI/ADR-RES ovarian) was 49.7 µM, the GI50 (OVCAR-3 ovarian) was 20.4 µM and the TGI (OVCAR-3 ovarian) was 47.4 µM. For the same molecule, the GI50 (OVCAR-4 ovarian) was 18.5 µM, the TGI (OVCAR-4 ovarian) was 44.5 µM and the GI50 (OVCAR-5 ovarian) was 34.4 µM. The TGI (OVCAR-5 ovarian) was > 100 µM, the GI50 (OVCAR-8 ovarian) was 27.3 µM and the TGI (OVCAR-8 ovarian) was 97.5 µM. The GI50 (PC-3 prostate) was 24.1 µM, the TGI (PC-3 prostate) was 79 µM and the GI50 (RPMI-8226 leukemia) was 16.7 µM. The TGI (RPMI-8226 leukemia) was 56.4 µM, the GI50 (RXF 393 renal) was 21.8 µM and the TGI (RXF 393 renal) was 58.6 µM. The GI50 (SF-268 CNS) was 24.9 µM, the TGI (SF-268 CNS) was > 100 µM and the GI50 (SF-295 CNS) was 20.2 µM. It also gave a TGI (SF-295 CNS) of 49.1 µM, a GI50 (SF-539 CNS) of 21.4 µM and a TGI (SF-539 CNS) of 40.9 µM. It also gave a GI50 (SK-MEL-2 melanoma) of 19.1 µM, a TGI (SK-MEL-2 melanoma) of 47.4 µM and a GI50 (SK-MEL-28 melanoma) of 15.7 µM. For the same molecule, the TGI (SK-MEL-28 melanoma) was 31 µM, the GI50 (SK-MEL-5 melanoma) was 16.6 µM and the TGI (SK-MEL-5 melanoma) was 30.8 µM. The GI50 (SK-OV-3 ovarian) was 30.4 µM, the TGI (SK-OV-3 ovarian) was > 100 µM and the GI50 (SN12C renal) was 16.9 µM. The TGI (SN12C renal) was 34.3 µM, the GI50 (SNB-19 CNS) was 12.2 µM and the TGI (SNB-19 CNS) was 58.8 µM. It also gave a GI50 (SNB-75 CNS) of 18.5 µM, a TGI (SNB-75 CNS) of 47.9 µM and a GI50 (SW-620 colon) of 26.4 µM. For the same molecule, the TGI (SW-620 colon) was 96.3 µM, the GI50 (T-47D breast) was 28.4 µM and the TGI (T-47D breast) was > 100 µM. The GI50 (TK-10 renal) was 17.5 µM, the TGI (TK-10 renal) was 52.8 µM and the GI50 (U251 CNS) was 20.2 µM. It also gave a TGI (U251 CNS) of 48.1 µM, a GI50 (UACC-257 melanoma) of 25.4 µM and a TGI (UACC-257 melanoma) of 91.1 µM. For the same molecule, the GI50 (UACC-62 melanoma) was 15.1 µM, the TGI (UACC-62 melanoma) was 31.2 µM and the GI50 (UO-31 renal) was 14.3 µM. For the same molecule, the TGI (UO-31 renal) was 28.9 µM.
